Test results from patent US20140134135A1, “METHODS AND COMPOSITIONS FOR PRESERVING LEAN BODY MASS DURING WEIGHT LOSS” (NESTEC SA, priority 2011, published 2014).

Test: Four-month weight loss study with oral OEA in the diet; body weight and body composition by DEXA
Assay type: in vivo, dogs (adult Labradors)
Excerpt: The physiological effects of regular oral OEA administration were investigated. OEA was provided as a supplement to dogs for four months to study the effect on body weight loss and body composition. Seventeen adult Labradors participated in the study. Males with greater than 22% body fat and females with greater than 26% body fat were selected. Based on maintenance energy requirements (MER), body weight and percentage of body fat, the dogs were randomly assigned into two groups. The control group (N=9) received a standard dry adult dog food (the control diet without any OEA). The test group (N=8) received the selected dose of OEA incorporated into the standard diet. The dogs were fed 25% less than their MER for 3 months and an additional 15% less for the next month. Body weight was recorded weekly and dual X-ray absorptiometry (DEXA) scans were performed at baseline and every month.

[1] = dogs fed OEA containing diet, calorie restricted, four months, chronic oral
[2] = dogs fed a weight loss diet with OEA

## CCCCCCCC/C=C\CCCCCCCC(=O)NCCO [OEA, oleoylethanolamide]
[1]
  Fat Loss (g/kg body weight loss): 561 g/kg body weight loss
  Lean Loss (g/kg body weight loss): 469 g/kg body weight loss
[2]
  body fat loss versus weight loss diet without OEA (in words): more loss in body fat
  lean body mass loss versus weight loss diet without OEA (in words): reduced loss of lean body mass
End of the four month study, control diet versus OEA diet
  less fat lost by dogs fed the control diet than by dogs fed the OEA containing diet, for every kilogram of body weight loss: 52%
End of the four month study, versus control diet
  less lean body mass lost than dogs fed the control diet, for every kilogram of body weight loss: 20%
End of the four month study, control diet −0.3%
  change in body fat: −1.8%
End of the four month study, control diet −1432.2 g
  change in lean body mass: -1166.6 g
